IC50 data for 9 molecules are collected here from BindingDB's records for patent US8940738 (Mitsubishi Tanabe Pharma, 2015).

T1 sequence (A0A3Q1MT31 1-419): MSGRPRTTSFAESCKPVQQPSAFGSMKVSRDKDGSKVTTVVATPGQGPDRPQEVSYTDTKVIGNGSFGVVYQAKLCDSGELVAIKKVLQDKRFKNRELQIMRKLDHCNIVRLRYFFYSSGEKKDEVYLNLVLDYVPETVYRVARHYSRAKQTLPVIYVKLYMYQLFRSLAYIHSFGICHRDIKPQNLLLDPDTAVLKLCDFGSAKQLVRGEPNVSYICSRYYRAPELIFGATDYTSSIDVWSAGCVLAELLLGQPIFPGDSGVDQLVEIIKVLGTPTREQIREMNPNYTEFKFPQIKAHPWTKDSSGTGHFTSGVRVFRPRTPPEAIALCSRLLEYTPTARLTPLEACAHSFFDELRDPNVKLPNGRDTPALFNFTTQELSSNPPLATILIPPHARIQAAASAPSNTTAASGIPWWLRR

The experiment has as its target T1, Serine/threonine-protein (Bos taurus, UniProt A0A3Q1MT31).
T1 construct: gene GSK3B
As to the kind of experiment: Inhibition Assay. As to conditions: pH 6.5; 25 °C. The protocol:
A mixture containing 100 mM MES-sodium hydroxide (pH 6.5), 1 mM magnesium acetate, 0.5 mM EGTA, 5 mM beta-mercaptoethanol, 0.02% Tween 20, 10% glycerol, 12 ug/ml P-GS1, 41.7 uM [gamma-32P] ATP (68 kBq/ml), bovine cerebral TPK1 and a compound shown in Table (a final mixture contained 1.7% DMSO deriving from a solution of a test compound prepared in the presence of 10% DMSO) was used as a reaction system. The phosphorylation was started by adding ATP, and the reaction was conducted at 25 C. for 2 hours, and then stopped by adding 21% perchloric acid on ice cooling. The reaction mixture was centrifuged at 12,000 rpm for 5 minutes and adsorbed on P81 paper (Whatmann), and then the paper was washed four times with 75 mM phosphoric acid, three times with water and once with acetone. The paper was dried, and the residual radioactivity was measured using a liquid scintillation counter.
Consider `C[C@@H]1COCCN1c1nc(-c2ncncc2F)cc(=O)n1C` [US8940738, 2], for which the midpoint of inhibition, the IC50, lay at 19.7 nM.

With `Cn1c(N2CCOC[C@H]2CF)nc(-c2ncncc2F)cc1=O` [US8940738, 3], 33.4 nM corresponded to half-maximal inhibition (IC50).

As for `Cc1nc(-c2ccc([C@H]3CN(c4nc(-c5ncncc5F)cc(=O)n4C)CCO3)cc2)no1` [US8940738, 4], the IC50 (in general, the concentration at which inhibition is half-maximal) is 8.4 nM.

As for `Cn1c(N2CCCC(c3ccc(N4CCCC4)cc3)C2)nc(-c2ncncc2F)cc1=O` (centres undefined) [US8940738, 5], the IC50 was 33.1 nM. This IC50 lies about 3.9-fold higher than the previous one.

Turning to `Cc1cccc(N2CCN(c3nc(-c4ncncc4F)cc(=O)n3C)CC2)c1C` [US8940738, 7], half-maximal inhibition (IC50) required 78.3 nM.

`COc1ccc(CCNc2nc(-c3ncncc3F)cc(=O)n2C)cc1OC` [US8940738, 8] displayed an IC50 of 75.3 nM.

Molecule `Cn1c(NCC(=O)c2ccc(Cl)cc2)nc(-c2ncncc2F)cc1=O` [US8940738, 9] displayed a concentration for half-maximal inhibition (IC50) of 608 nM.

`CN(CCc1ccc([N+](=O)[O-])cc1)c1nc(-c2ncncc2F)cc(=O)n1C` [US8940738, 10] displayed an IC50 of 165 nM. Against the preceding molecule, the IC50 is about 3.7-fold lower.

`Cc1nc(-c2ccc([C@H]3CN(c4nc(-c5ccncn5)c(O)c(=O)n4C)CCO3)cc2)no1` [US8940738, 11] came in with an IC50 of 6.7 nM.
